The results in this text go back to US6737438B2, “Substituted 1,2,4-trioxanes useful as antimalarial agents and a process for the preparation thereof” (Council of Scientific and Industrial Research, priority 2002, dated 2004).

Like-named read-outs stand apart in the source and are kept apart here.

The subject of this experiment is multidrug resistant strain of Plasmodium yoelii Nigeriensis. The experiment in a line: Antimalarial activity against multidrug resistant P. yoelii in swiss mice. The class given is in vivo. The settings on record: for % Suppression on Day 4 / inhibition in vivo at 96 mg/kg: 4 consecutive days (day 0-3), parasitaemia vs vehicle control; for Cured/treated: observed till day 28; for inhibition in vivo at 96 mg/kg / responders at 96 mg/kg: Plasmodium yoelii; for inhibition in vivo at 96 mg/kg: 96 h, read-out: % Suppression on Day 4; for responders at 96 mg/kg: 672 h, observed till day 28, read-out: Cured/treated (converted).

In the case of `C=C(c1ccc(-c2ccc(Cl)cc2)cc1)C1COC2(OO1)C1CC3CC(C1)CC2C3` (stereo not shown) [Trioxane 9g], for the setting “i.m., 96 mg/kg”, the “% Suppression on Day 4” value turned out to be 100%. Further, for the setting “oral, 96 mg/kg”, the “% Suppression on Day 4” value was determined as 100% and the Cured/treated was 3/5.
For the molecule `C=C(c1ccc(-c2ccc(Br)cc2)cc1)C1COC2(CC3CCC2C3)OO1` (stereo not shown) [Trioxane 8f], under “i.m., 96 mg/kg”, the “% Suppression on Day 4” value is 100% and the Cured/treated is recorded as 0/5. Further, where the note is “oral, 96 mg/kg”, the “% Suppression on Day 4” value was determined as 100% and the Cured/treated is on record as 5/5.
As to `C=C(c1ccc(-c2ccccc2)cc1)C1COC2(OO1)C1CC3CC(C1)CC2C3` (stereo not shown) [Trioxane 9e], under “i.m., 96 mg/kg”, the “% Suppression on Day 4” value was determined as 100% and the Cured/treated is recorded as 0/6. Further, under “oral, 96 mg/kg”, the “% Suppression on Day 4” value is 100% and the Cured/treated was 6/6.
In the case of `C=C(c1ccc(-c2ccc(Br)cc2)cc1)C1COC2(CCC(C(C)(C)CC)CC2)OO1` (stereo not shown) [Trioxane 7fd], under “i.m., 48 mg/kg”, the “% Suppression on Day 4” value amounted to 51.09% and the Cured/treated is reported as 0/5. For the same molecule, for the setting “oral, 96 mg/kg”, the “% Suppression on Day 4” value is 88.39% and the Cured/treated is 0/5.
Turning to `C=C(c1ccc(C2CCCCC2)cc1)C1COC2(OO1)C1CC3CC(C1)CC2C3` (stereo not shown) [Trioxane 9b], where the note is “i.m., 96 mg/kg”, the “% Suppression on Day 4” value came to 82.16% and the Cured/treated is recorded as 0/5. Further, under “oral, 96 mg/kg”, the “% Suppression on Day 4” value is 100% and the Cured/treated is 5/5.
For `C=C(c1ccc(C2CCCCCC2)cc1)C1COC2(CCC(C(C)(C)CC)CC2)OO1` (stereo not shown) [Trioxane 7cb], in that order: 86.31%, 0/5, 100% and 5/5.
For `C=C(c1ccc(C2CCCC2)cc1)C1COC2(CCC(C(C)(C)CC)CC2)OO1` (stereo not shown) [Trioxane 7ae], in that order: 43.58%, 0/5, 100% and 0/5.
Take `C(=CC1COC2(CCCCC2)OO1)c1ccc(-c2ccccc2)cc1` (stereo not shown) [Trioxane 7ec, 3-[([1,1′-biphenyl]-4yl)vinyl]-1,2,5-trioxaspiro (5,5) undecane]: the inhibition in vivo at 96 mg/kg is, setting by setting: (oral, 96 mg/kg) 100%; (im, i.m., 96 mg/kg) 100%. The responders at 96 mg/kg is 100% (oral, 96 mg/kg) and 0% (im, i.m., 96 mg/kg).
`C=C(c1ccc(-c2ccc(Br)cc2)cc1)C1COC2(CCC(c3ccccc3)CC2)OO1` (stereo not shown) [Trioxane 7ff]: under “i.m., 96 mg/kg”, the “% Suppression on Day 4” value came to 46.1% and the Cured/treated is listed as 0/5. Under “oral, 96 mg/kg”, the “% Suppression on Day 4” value amounted to 100% and the Cured/treated is 2/5.
For `C=C(c1ccc(-c2ccccc2)cc1)C1COC2(CCC(C(C)(C)CC)CC2)OO1` (stereo not shown) [Trioxane 7eg], in that order: 87.6%, 0/5, 100% and 3/5.
On to `C=C(c1ccc(C2CCCCC2)cc1)C1COC2(CCC(c3ccccc3)CC2)OO1` (mixture of isomers) [Trioxane 7be], for which the “% Suppression on Day 4” value was 91.6% (i.m., 96 mg/kg) and 100% (oral, 48 mg/kg). Also, the Cured/treated is given as 0/5 (i.m., 96 mg/kg) and 5/5 (oral, 48 mg/kg).
For `Brc1ccc(-c2ccc(C=CC3COC4(CCCC4)OO3)cc2)cc1` (stereo not shown) [Trioxane 7fe, 8-[(4′-bromo-[1,1′-biphenyl]-4yl)vinyl]-6,7,10-trioxaspiro (4,5) decane], where the note is “oral, 96 mg/kg”, the inhibition in vivo at 96 mg/kg worked out at 100% and the responders at 96 mg/kg is 60%. Under “im, i.m., 96 mg/kg”, the inhibition in vivo at 96 mg/kg was determined as 89.4% and the responders at 96 mg/kg is 0%.
Regarding `C=C(c1ccc(C2CCCC2)cc1)C1COC2(OO1)C1CC3CC(C1)CC2C3` (stereo not shown) [Trioxane 9a], the “% Suppression on Day 4” value is, setting by setting: (i.m., 96 mg/kg) 81.23%; (oral, 96 mg/kg) 100%. In addition, the Cured/treated runs as follows: (i.m., 96 mg/kg) 0/5; (oral, 96 mg/kg) 5/5.
For the molecule `C(=CC1COC2(CCCCC2)OO1)c1ccc(C2CCCCCC2)cc1` (stereo not shown) [Trioxane 7ca, 3-[(4′-cycloheptylphenyl)vinyl]-1,2,5-trioxaspiro-[5,5]-undecane], under “i.m., 96 mg/kg”, the “% Suppression on Day 4” value is given as 62.18% and the Cured/treated is recorded as 0/5. Further, under “oral, 96 mg/kg”, the “% Suppression on Day 4” value came to 100% and the Cured/treated was 1/5.
Take `C=C(c1ccc(C2CCCCCCC2)cc1)C1COC2(CCC(c3ccccc3)CC2)OO1` (stereo not shown) [Trioxane 7dd]: the “% Suppression on Day 4” value runs as follows: (i.m., 96 mg/kg) 73.81%; (oral, 96 mg/kg) 100%. The Cured/treated was 0/5 (i.m., 96 mg/kg) and 4/5 (oral, 96 mg/kg).
Take `C(=CC1COC2(CCCCCC2)OO1)c1ccc(-c2ccccc2)cc1` (stereo not shown) [Trioxane 7eh, 3[([1,1′-biphenyl]-4yl)vinyl]-1,2,5-trioxaspiro(5,6)dodecane]: the inhibition in vivo at 96 mg/kg (oral, 96 mg/kg) turned out to be 100% and the inhibition in vivo at 96 mg/kg (im, i.m., 96 mg/kg) came out at 92%. In addition, the responders at 96 mg/kg (oral, 96 mg/kg) is 80% and the responders at 96 mg/kg (im, i.m., 96 mg/kg) was 0%.
Take `C(=CC1COC2(CCCC2)OO1)c1ccc(C2CCCCC2)cc1` (stereo not shown) [Trioxane 7bh, 8-[(4′-cyclohexylphenyl)vinyl]-6,7,10-trioxaspiro (4,5) decane]: the “% Suppression on Day 4” value is, setting by setting: (i.m., 96 mg/kg) 100%; (oral, 96 mg/kg) 100%. Besides, the Cured/treated is listed as 1/4 (i.m., 96 mg/kg) and 4/4 (oral, 96 mg/kg).
Turning to `C(=CC1COC2(CCCC2)OO1)c1ccc(C2CCCC2)cc1` (stereo not shown) [Trioxane 7aa, 8-[(4′-Cyclopentylphenyl)vinyl]-6,7,10-trioxaspiro-[4,5]-decane], the “% Suppression on Day 4” value (i.m., 96 mg/kg) is recorded as 100% and the “% Suppression on Day 4” value (oral, 96 mg/kg) came out at 100%. Also, the Cured/treated is 0/5 (i.m., 96 mg/kg) and 5/5 (oral, 96 mg/kg).
For the molecule `CCC1(C)OCC(C=Cc2ccc(-c3ccc(Br)cc3)cc2)OO1` (stereo not shown) [Trioxane 7fb, 3-Ethyl-3-methly-6-[(4′-bromo-[1,1′-biphenyl]-4-yl)-vinyl]-1,2,4-trioxane], where the note is “i.m., 96 mg/kg”, the “% Suppression on Day 4” value turned out to be 51.41% and the Cured/treated is recorded as 0/5. Besides, under “oral, 96 mg/kg”, the “% Suppression on Day 4” value is on record as 100% and the Cured/treated was 0/5.
As for `C(=CC1COC2(CCCCC2)OO1)c1ccc(C2CCCCCCC2)cc1` (stereo not shown) [Trioxane 7db, 3-[(4′-cyclooctylphenyl)vinyl]-1,2,5-trioxaspiro-(5,5)-undecane], the “% Suppression on Day 4” value (i.m., 96 mg/kg) is recorded as 9.5% and the “% Suppression on Day 4” value (oral, 96 mg/kg) is recorded as 100%. Moreover, the Cured/treated (i.m., 96 mg/kg) is recorded as 0/5 and the Cured/treated (oral, 96 mg/kg) was 5/5.
Consider `C=C(c1ccc(C2CCCCCCC2)cc1)C1COC2(OO1)C1CC3CC(C1)CC2C3` (stereo not shown) [Trioxane 9d], for which, where the note is “i.m., 96 mg/kg”, the “% Suppression on Day 4” value came to 60.12% and the Cured/treated is 0/5. Moreover, where the note is “oral, 96 mg/kg”, the “% Suppression on Day 4” value came to 100% and the Cured/treated was 5/5.
As for `C=C(c1ccc(-c2ccccc2)cc1)C1COC2(CCC(c3ccccc3)CC2)OO1` (stereo not shown) [Trioxane 7ef], where the note is “i.m., 96 mg/kg”, the “% Suppression on Day 4” value was found to be 42.7% and the Cured/treated was 0/5. Further, for the setting “oral, 96 mg/kg”, the “% Suppression on Day 4” value was determined as 100% and the Cured/treated is 2/5.
On to `C(=CC1COC2(CCCCC2)OO1)c1ccc(C2CCCCC2)cc1` (stereo not shown) [Trioxane 7bd, 3-[(4′-Cyclohexylphenyl)vinyl]-1,2,5-trioxaspiro(5,5)undecane], for which the “% Suppression on Day 4” value (i.m., 96 mg/kg) is reported as 71.73% and the “% Suppression on Day 4” value (oral, 96 mg/kg) came out at 100%. Also, the Cured/treated runs as follows: (i.m., 96 mg/kg) 0/5; (oral, 96 mg/kg) 5/5.
